From PMC8160911, “Anti-Melanogenic Properties of Velutin and Its Analogs” (Molecules, 2021) come the findings set out here.

“Also recorded” adds a separate entry of the source. Read-outs that look alike come from different tables or passages of the source.

A short description of series [1]: ABTS free radical scavenging activity. The following applies: for EC50: 10 min in the dark at RT. The procedure: In order to evaluate the antioxidant activity of the velutin derivatives, the ABTS radical scavenging activity was determined, as previously described. To generate the ABTS radical, 10 mL of 7 mM ABTS was mixed with 176 μL of 140 mM potassium peroxydisulfate in dH2O, and incubated in the dark at room temperature (RT) for 16 h, prior to use. The ABTS radical solution was diluted with absolute methanol, to obtain an absorbance of near 0.7 at 734 nm. Aliquots of 100 μL of each derivative in the indicated concentration range 2 to 200 μM were added to 100 μL of the diluted ABTS radical solution, and incubated for 10 min in the dark at RT. The absorbance was then measured at 732 nm using a SpectraMax M5 Multi-Mode microplate reader (Molecular Devices, Sunnyvale, CA, USA). The ABTS radical scavenging activity was calculated as follows:ABTS radical scavenging activity (%) = 1 − (Asample/Acontrol) × 100(1)

For another series, the target named is T1, mushroom tyrosinase (Agaricus bisporus, UniProt C7FF04).
T1 construct: purchased Sigma-Aldrich
The series can be described thus: In vitro mushroom tyrosinase inhibition (dopachrome formation from L-tyrosine). The series is classed as biochemical. The procedure: The inhibitory effect of velutin derivatives on tyrosinase activity was assessed by the amount of dopachrome synthesized from the catalytic reaction of tyrosinase. […] Then, 100 μL of 0.4 mM L-tyrosine was added to each well, followed by incubation for an additional 10 min at 37 °C.

Another series concerns B16F10 melanoma cells. The series can be described thus: Melanin content in α-MSH-stimulated melanoma cells. The following applies: 48 h; for effect on α-MSH-stimulated melanogenesis: 10 μM; for inhibition at 10 µM: Mus musculus, B16-F10, 10 μM, read-out: inhibition of α-MSH-stimulated melanogenesis. The series is classed as cell-based, murine. The procedure:
(§1) B16F10 murine melanoma cells were cultured in DMEM medium (Gibco, Gaithersburg, USA) supplemented with 10% heat-inactivated fetal bovine serum (Gibco), 100 units/mL penicillin, and 100 μg/mL streptomycin (Gibco), at 37 °C under humidified 5% CO2.
The melanin content was determined as previously described, with some modifications. The melanoma cells were cultured in a 6-well plate for 24 h. They were treated with the indicated concentrations of velutin derivatives for a further 48 h, in the presence of 100 nM α–MSH. After washing twice with chilled Dulbecco’s phosphate buffered saline supplemented with calcium chloride and magnesium chloride (D-PBS, Gibco), the resulting cells were detached by incubation with trypsin–EDTA solution. After centrifugation at 1000 rpm for 3 min, the cell pellet was dissolved in 150 μL of 1 M NaOH containing 10% DMSO for 1 h at 60 °C. The melanin content was determined by the absorbance at 405 nm, using the microplate reader.
(§2) Figure 3 Effect of velutin derivatives on intracellular melanin synthesis in B16F10 melanoma cells. B16F10 cells were treated with 0.1% DMSO as vehicle, or with 10 μM of each derivative, for 48 h. (A) Melanin content in the B16F10 cells was determined using a photometric method, as described in the Experimental Section. (B) Cellular tyrosinase activity was determined by measuring dopachrome generated by the enzymatic reaction of cell lysates with L-DOPA. Data are expressed as the mean ± SD of three independent experiments (** p < 0.005, *** p < 0.001 as compared to α-MSH-stimulated B16F10 cells).

Series [2] relates to intracellular tyrosinase in B16F10 cells. The series can be described thus: Cellular tyrosinase activity in α-MSH-stimulated melanoma cells (L-DOPA to dopachrome in lysates). It counts as cell-based, murine. The following applies: 48 h; for reversal of α-MSH-mediated tyrosinase activation / effect on α-MSH-mediated intracellular tyrosinase activation: 10 μM, 100 nM α-MSH. The protocol:
as §1
Tyrosinase activity in B16 cells was examined on the basis of the amount of dopachrome produced from the catalytic reaction of intracellular tyrosinase. In brief, the melanoma cells were cultured in a 6-well plate for 24 h, followed by treatment with different concentrations of velutin derivatives for a further 48 h, in the presence of 100 nM of α–MSH. After washing twice with ice-cold D-PBS, the cells were lysed in 200 μL of radio-immunoprecipitation assay (RIPA) buffer (Sigma-Aldrich), containing protease and phosphatase inhibitors. After centrifugation of the cell lysate collected from each well at 15,000× g for 15 min, 100 μL of supernatant was mixed with 100 μL of 1 mM L-DOPA in PBS (pH 6.8), followed by incubation for 30 min at 37 °C. The absorbance of dopachrome was measured at 475 nm using the microplate reader. Data were normalized with protein concentration, determined by bicinchoninic acid assay.
as §2

Series [3] has as its system B16F10 murine melanoma cells. The series can be described thus: Cell viability / cytotoxicity by MTT assay. The series is classed as cell-based. The following applies: for death rate: 20 μM. The protocol:
as §1
The viability of B16F10 cells was determined using an MTT assay, as previously described. In brief, B16F10 cells were seeded in 24-well plates at a density of 1 × 10^4 cells per well. After 24 h, the cells were treated with the indicated concentrations of velutin derivatives for 48 h. The cells were then incubated with MTT solution for 4 h, and the reduced formazan crystals were dissolved in DMSO. The resulting solution was transferred to 96-well plates, and the absorbance was measured at 540 nm, using a SpectraMax M5 Multi-Mode microplate reader.
Figure 2 Cytotoxicity of velutin derivatives in the B16F10 melanoma cells. B16F10 cells were treated with 0.1% DMSO as vehicle, or with 20 μM of each derivative, for 24 h. Cell viability was determined by the MTT assay, as described in the Experimental Section. Data are expressed as the mean ± SD of three independent experiments (** p < 0.005, *** p < 0.001 compared to the control cells).
On the technique in general: Tetrazolium dyes change colour on reduction, which living cells bring about.

Setting [4] is: 50 U/mL mushroom tyrosinase, L-tyrosine substrate, read-out: IC50 in Mushroom Tyrosinase Activity.

T1 sequence (C7FF04 1-392 limits assumed): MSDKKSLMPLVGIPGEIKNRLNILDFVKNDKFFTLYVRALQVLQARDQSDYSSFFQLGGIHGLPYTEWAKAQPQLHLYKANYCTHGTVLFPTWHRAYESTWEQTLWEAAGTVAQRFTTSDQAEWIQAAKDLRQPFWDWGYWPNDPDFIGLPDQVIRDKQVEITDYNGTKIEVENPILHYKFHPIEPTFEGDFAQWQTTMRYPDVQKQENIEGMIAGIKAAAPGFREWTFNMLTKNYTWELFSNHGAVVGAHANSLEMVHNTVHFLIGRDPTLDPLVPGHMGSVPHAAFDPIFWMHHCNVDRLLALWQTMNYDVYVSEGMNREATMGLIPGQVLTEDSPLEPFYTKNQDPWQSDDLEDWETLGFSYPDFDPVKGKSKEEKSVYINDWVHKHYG

Take `OC[C@H]1O[C@@H](Oc2ccc(O)cc2)[C@H](O)[C@@H](O)[C@@H]1O` [Arbutin, arbutin, reference compound]: in series [1], the EC50 (as a rule, the concentration at which the effect is half-maximal) is 12.7 µM.
For `COc1cc(O)c2c(=O)cc(-c3ccc(O)c(OC)c3)oc2c1` [Compound V1, Velutin], the response in series [1] was half-maximal at 23.1 µM (EC50). At mushroom tyrosinase (setting [4]), the IC50 (commonly the concentration that gives 50% inhibition) was 910 µM. Besides, the “effect on α-MSH-stimulated melanogenesis” value with B16F10 melanoma cells (100 nM α-MSH) is “completely inhibited”. Also, the “reversal of α-MSH-mediated tyrosinase activation” value (shortened to “reversal”) in series [2] was 87%.
Take `COc1ccc2c(=O)cc(-c3ccc(O)c(OC)c3)oc2c1` [Compound V2, 2-(4-Hydroxy-3-methoxyphenyl)-7-methoxy-4H-chromen-4-one]: the EC50 in series [1] came out at 21.9 µM. In addition, in the series on B16F10 melanoma cells (100 nM α-MSH), the “effect on α-MSH-stimulated melanogenesis” value was “completely inhibited”. The “effect on α-MSH-mediated intracellular tyrosinase activation” value in series [2] is listed as “did not”.
As for `COc1cc(-c2cc(=O)c3c(O)cccc3o2)ccc1O` [Compound V3, 5-Hydroxy-2-(4-hydroxy-3-methoxyphenyl)-4H-chromen-4-one], in series [1], the response was half-maximal at 23.3 µM (EC50). Moreover, the inhibition (as a rule, the drop in the measured response relative to a control, in per cent) at 10 µM with B16F10 melanoma cells (100 nM α-MSH) was determined as 50.7%. Also, the “reversal” value in series [2] is given as 97%.
Take `COc1cc(O)c2c(=O)cc(-c3ccc(O)cc3)oc2c1` [Compound V4, Genkwanin]: in series [1], the EC50 stood at 55.7 µM. For the same molecule, the IC50 on mushroom tyrosinase amounted to 204 µM. Besides, in the series on B16F10 melanoma cells (100 nM α-MSH), the inhibition at 10 µM came to 69.1%. Also, the “reversal” value in series [2] was 100%.
In series [1], `COc1cccc(-c2cc(=O)c3c(O)cc(OC)cc3o2)c1` [Compound V5, 5-Hydroxy-7-methoxy-2-(3-methoxyphenyl)-4H-chromen-4-one] gave an EC50 of 96.6 µM. Also, in the series on B16F10 melanoma cells (100 nM α-MSH), the inhibition at 10 µM is 39.3%. In addition, in series [2], the “reversal” value turned out to be 80%.
Molecule `COc1cc(OC)c2c(=O)cc(-c3ccc(O)c(OC)c3)oc2c1` [Compound V6, 2-(4-Hydroxy-3-methoxyphenyl)-5,7-dimethoxy-4H-chromen-4-one] yielded an EC50 in series [1] of 23.7 µM. Further, the “increase of melanin synthesis” value in the series on B16F10 melanoma cells (10 μM derivative, 100 nM α-MSH) amounted to 3.0 fold.
For `COc1cc(-c2cc(=O)c3c(O)cc(O)cc3o2)ccc1O` [Compound V7, Chrysoeriol], the midpoint of the response in series [1], the EC50, lay at 22.1 µM. For the same molecule, the “effect on α-MSH-stimulated melanogenesis” value in the series on B16F10 melanoma cells (100 nM α-MSH) is recorded as “not significantly changed; also recorded: no effect”. In addition, the “effect on α-MSH-mediated intracellular tyrosinase activation” value in series [2] is given as “did not; also recorded: no effect”.
Molecule `COc1cc(O)c2c(=O)cc(-c3ccc(O)c(O)c3)oc2c1` [Compound V8, 2-(3,4-Dihydroxyphenyl)-5-hydroxy-7-methoxy-4H-chromen-4-one] displayed a half-maximal effective concentration (EC50) in series [1] of 5.47 µM. Moreover, on mushroom tyrosinase (setting [4]), the half-inhibitory concentration (IC50) is 202 µM. Also, the death rate in series [3] amounted to 71.8%.
In turn, `COc1cc(O)c2c(=O)cc(-c3ccc(OC)c(OC)c3)oc2c1` [Compound V9, 2-(3,4-Dimethoxyphenyl)-5-hydroxy-7-methoxy-4H-chromen-4-one] came in with a concentration giving a half-maximal response (EC50) in series [1] of 100 µM. Further, the concentration for half-maximal inhibition (IC50) at mushroom tyrosinase (setting [4]) stood at 715 µM. Further, the “effect on α-MSH-stimulated melanogenesis” value in the series on B16F10 melanoma cells (100 nM α-MSH) is “not significantly changed”. In series [2], the “effect on α-MSH-mediated intracellular tyrosinase activation” value is recorded as “did not”.
As to `COc1cc(OC)c2c(=O)cc(-c3ccc(OC)c(OC)c3)oc2c1` [Compound V10, 2-(3,4-Dimethoxyphenyl)-5,7-dimethoxy-4H-chromen-4-one], the “effect on radical scavenging activity” value in series [1] was “no significant effect”. The death rate in series [3] turned out to be 24.0%. Moreover, the “effect on α-MSH-stimulated melanogenesis” value in the series on B16F10 melanoma cells (100 nM α-MSH) is listed as “not significantly changed”. Further, in series [2], the “effect on α-MSH-mediated intracellular tyrosinase activation” value was “did not”.
Take `O=c1cc(-c2ccc(O)c(O)c2)oc2cc(O)cc(O)c12` [Compound V11, luteolin]: in series [1], the EC50 stood at 6.13 µM. Also, the concentration for half-maximal inhibition (IC50) at mushroom tyrosinase (setting [4]) is 36.7 µM. This molecule displayed a death rate in series [3] of 69.7%. In addition, the “effect on cell viability / cytotoxicity” value in series [3] (concentrations up to 20 μM) is “cytotoxicity”.
Regarding `O=c1cc(-c2ccccc2)oc2ccccc12` [Compound V12, 2-Phenylchromen-4-one], in series [1], the “effect on radical scavenging activity” value was “no significant effect”.
For the molecule “α-melanocyte stimulating hormone [α–MSH, reference compound]”, in the series with B16F10 melanoma cells (100 nM α-MSH alone), the “increase of melanin content by α-MSH” value came out at 1.9 fold. Further, in series [2] (100 nM α-MSH alone), the “activation of tyrosinase by α-MSH” value is “approximately 1.7 fold”.
